Data published in patent US4455315A, “N-(Difluoromethoxy substituted phenyl)-dichloromaleimides used in agricultural and horticultural fungicidal methods” (Showa Denko Kabushiki Kaisha, priority 1980, dated 1984).

Key:
Venturia inaequalis = test: Apple Scab-controlling Test; assay type: in vivo; conditions: 500 ppm; for Infested Leaves (%): seven days after inoculation; for Infestation Rate: seven days, (Σnf/3N)×100; for Number of Leaves Showing Each Infestation Index: 0: index 0 = 0% infested area; for Number of Leaves Showing Each Infestation Index: 1: index 1 = 1-25% infested area; for Number of Leaves Showing Each Infestation Index: 2: index 2 = 26-50% infested area; for Number of Leaves Showing Each Infestation Index: 3: index 3 = 51-100% infested area
Elsinoe fawcetti = test: Citrus Scab-controlling Test; conditions: 250 ppm; for Infested Leaves (%): 23 days after inoculation; for Infestation Rate: 23 days, (Σnf/3N)×100; for Number of Leaves Showing Each Infestation Index: 0: index 0 = 0 spots per leaf; for Number of Leaves Showing Each Infestation Index: 1: index 1 = 1-3 spots per leaf; for Number of Leaves Showing Each Infestation Index: 2: index 2 = 4-10 spots per leaf; for Number of Leaves Showing Each Infestation Index: 3: index 3 = ≥11 spots per leaf
Experimental: (§1) The resulting solution is sprayed, in an amount corresponding to 600 l/10a per pot, on potted young oranges (variety: Unshu) immediately after fresh leaves are unfolded. After one day, the potted young oranges are inoculated with Elsinoe fawcetti, by spraying a suspension of crushed hyphae thereof containing 50 crushed hyphae per microscopic field (magnification: X100). The suspension is prepared by culturing Elsinoe fawcetti on potato medium at a temperature of 25° C. for 30 days to form hyphae and suspending it in sterilized water.
(§2) After inoculation, the potted young oranges are allowed to stand at a temperature of 25° C. in a moist room for two days and then transferred to a greenhouse. Twenty-three days after inoculation, the leaf infested by citrus scab is examined, i.e., number of pathologic spots on a leaf is examined and the numbers of leaves infested by cirtrus scab are counted. Then, an infestation rate is calculated according to the following equation:
Infestation Rate=(Σnf/3N)×100
wherein n is the number of the infested leaves, f is an infestation index and N is the total number of the examined leaves. The infestation index is as follows.
For comparison, the above test is also carried out using a reference compound (benomyl) and plain water.

[1] = system: potted apples (variety: Star King); test: Phytotoxicity of treating compound, Apple Scab test; conditions: 500 ppm
[2] = system: potted young oranges (variety: Unshu); test: Phytotoxicity of treating compound, Citrus Scab test; conditions: 250 ppm
Experimental: as §1, §2

Alternaria kikuchiana [3] = test: Spore-germination Inhibiting Test; assay type: cell-based; conditions: 10 ppm, 27° C., 20 hours
Experimental: Spore-germination Inhibiting Test for Alternaria kukuchiana An apricot medium is inoculated with Alternaria kikuchiana and incubated at a temperature of 27° C. for 7-10 days to form conidia on the medium. […] 0.02 Ml of the prepared spore suspension containing the compound according to the present invention is dropped on a slide glass and incubated at a temperature of 27° C. under moist conditions for 20 hours. Thereafter, whether or not the spores germinate is examined under a microscope and the spore-germination rate is then calculated.

Diaporthe citri [4] = test: Citrus Melanose-controlling Test; assay type: in vivo; conditions: 500 ppm; for Infested Leaves (%): 24 days after inoculation; for Infestation Rate / Number of Leaves Showing Infestation Index 0 / Number of Leaves Showing Infestation Index 1 / Number of Leaves Showing Infestation Index 2 / Number of Leaves Showing Infestation Index 3 / Number of Leaves Showing Infestation Index 4: 24 days; for Infestation Rate: (Σnf/4N)×100; for Number of Leaves Showing Infestation Index 0: index 0 = 0-25% infested area; for Number of Leaves Showing Infestation Index 1: index 1 = 26-50% infested area; for Number of Leaves Showing Infestation Index 2: index 2 = 51-75% infested area; for Number of Leaves Showing Infestation Index 3: index 3 = 76-90% infested area; for Number of Leaves Showing Infestation Index 4: index 4 = 91-100% infested area
Diaporthe citri [5] = test: Test of Residual Activity against Citrus Melanose; assay type: in vivo; conditions: 1000 ppm, 23 mm/hr of rain; for Infested Leaves (%): 24 days after inoculation; for Infestation Rate: 24 days, (Σnf/4N)×100; for Number of Leaves Showing Each Infestation Index: 0: index 0 = 0-25% infested area; for Number of Leaves Showing Each Infestation Index: 1: index 1 = 26-50% infested area; for Number of Leaves Showing Each Infestation Index: 2: index 2 = 51-75% infested area; for Number of Leaves Showing Each Infestation Index: 3: index 3 = 76-90% infested area; for Number of Leaves Showing Each Infestation Index: 4: index 4 = 91-100% infested area
Alternaria mali = test: Apple Alternaria Leaf Spot-controlling Test; assay type: in vivo; conditions: 500 ppm, six days after inoculation
[6] = system: Pseudoperonospora cubensis; test: Cucumber Downy Mildew-controlling Test; assay type: in vivo; conditions: 1000 ppm, five days after inoculation
Excerpt: Cucumber Downy Mildew (Pseudoperonospora cubensis)-controlling Test […] After one day, the cucumbers are inoculated with Pseudoperonospora cubensis, by spraying a suspension thereof containing 30 spores per microscopic field (magnification: […]), which are collected from the leaves infested by cucumber downy mildew. […] In this test, one cucumber is planted in each pot and three pots are used.

Phytophthora infestans = assay type: in vivo; conditions: 500 ppm; for Infested Leaves (%): six days after inoculation; for Infestation Rate: six days, (Σnf/3N)×100; for Number of Leaves Showing Each Infestation Index: 0: index 0 = 0% infested area; for Number of Leaves Showing Each Infestation Index: 1: index 1 = 1-25% infested area; for Number of Leaves Showing Each Infestation Index: 2: index 2 = 26-50% infested area; for Number of Leaves Showing Each Infestation Index: 3: index 3 = 51-100% infested area
[7] = system: potted pears (variety: Niju-seiki); test: Test of Phytotoxicity to Pears; assay type: in vivo, pear; conditions: 75% Wettable Powders, two weeks
Excerpt: Test of Phytotoxicity to Pears
After air-drying, the potted pears are allowed to stand in a greenhouse.

peroral acute toxicity = conditions: in vivo, po, four-week-old male mouse
ichthyotoxicity = conditions: killifish, in vivo; read-out: Tlm48
TA-100 = test: mutagenicity test (Ames test), TA-100; assay type: cell-based
TA-98 = test: mutagenicity test (Ames test), TA-98; assay type: cell-based
[8] = system: potted potatoes (variety: Chippewa); conditions: 500 ppm
[9] = system: potted apples (variety: Star King); test: Test of Phytotoxicity to Apples; conditions: 75% Wettable Powders, dilution × 750, 600 l/10 a, two weeks
Experimental: The resulting solution of wettable powders is sprayed, in an amount corresponding to 600 l/10a per pot, on potted apples (variety: Star King) immediately after fresh leaves are unfolded. After air-drying, the potted apples are allowed to stand in a greenhouse. Two weeks after the spray treatment, the phytotoxicity, of the compound according to the present invention, to the potted apples is examined.
For comparison, the above test is also carried out using a reference compound (fluoroimide) and plain water.

Alternaria kikuchiana [10] = test: Pear Black Spot-controlling Test; conditions: 500 ppm, six days after inoculation
Experimental: Pear Black Spot (Alternaria kikuchiana)-controlling Test
(§3) The resulting solution is sprayed on unfolded leaves of potted young pears (variety: Niju-seiki) in an amount corresponding to 600 l/10a per pot. After air-drying, the unfolded leaves are inoculated with Alternaria kikuchiana, by spraying a suspension of conidia thereof containing 30 conidia per microscopic field (magnification: X200).
(§4) After inoculation, the potted young pears are allowed to stand at a temperature of 27° C. in a moist room for one day and then transferred to a greenhouse. Six days after inoculation, the leaf area infested by pear black spot, i.e., the area of pathologic spots on a leaf is examined on 5 unfolded leaves per pot and an average infestation rate is then calculated.

[11] = system: potted young pears (variety: Niju-seiki); test: Phytotoxicity of treating compound, Pear Black Spot test; conditions: 500 ppm, damaged area on leaves
Experimental: as §3, §4
*The phytotoxicity of the treating compound is evaluated according to the

[12] = system: potted young oranges (variety: Unshu); test: Phytotoxicity of treating compound, Citrus Melanose test; conditions: 500 ppm
[13] = system: potted young oranges (variety: Unshu); test: Phytotoxicity of treating compound, residual activity test; conditions: 1000 ppm, 23 mm/hr of rain
crops and trees = conditions: cited from earlier work
plant pathogens = conditions: U.S. Pat. No. 2,444,536; cited from earlier work

## CCCCNC(=O)n1c(NC(=O)OC)nc2ccccc21 [benomyl, Methyl-1-(butylcarbamoyl)-2-benzimidazolecarbamate]
Venturia inaequalis
  Infested Leaves (%): 0%
  Infestation Rate: 0
  Number of Leaves Showing Each Infestation Index: 0: 25 leaves
  Number of Leaves Showing Each Infestation Index: 1: 0 leaves
  Number of Leaves Showing Each Infestation Index: 2: 0 leaves
  Number of Leaves Showing Each Infestation Index: 3: 0 leaves
Elsinoe fawcetti
  Infested Leaves (%): 0.6%
  Infestation Rate: 0.2
  Number of Leaves Showing Each Infestation Index: 0: 328 leaves
  Number of Leaves Showing Each Infestation Index: 1: 2 leaves
  Number of Leaves Showing Each Infestation Index: 2: 0 leaves
  Number of Leaves Showing Each Infestation Index: 3: 0 leaves
[1]
  Phytotoxicity of Treating Compound: - (0%)
[2]
  Phytotoxicity of Treating Compound: - (0%)

## O=C1C(Cl)=C(Cl)C(=O)N1c1ccc(OC(F)F)cc1 [compound 3, 2,3-dichloro-N-(p-difluoromethoxyphenyl)maleimide]
Alternaria kikuchiana [3]
  Spore-germination Rate (%): 0%
Diaporthe citri [4]
  Infested Leaves (%): 0%
  Infestation Rate: 0
  Number of Leaves Showing Infestation Index 0: 271 leaves
  Number of Leaves Showing Infestation Index 1: 0 leaves
  Number of Leaves Showing Infestation Index 2: 0 leaves
  Number of Leaves Showing Infestation Index 3: 0 leaves
  Number of Leaves Showing Infestation Index 4: 0 leaves
Diaporthe citri [5]
  Infested Leaves (%): 0%
  Infestation Rate: 0
  Number of Leaves Showing Each Infestation Index: 0: 187 leaves
  Number of Leaves Showing Each Infestation Index: 1: 0 leaves
  Number of Leaves Showing Each Infestation Index: 2: 0 leaves
  Number of Leaves Showing Each Infestation Index: 3: 0 leaves
  Number of Leaves Showing Each Infestation Index: 4: 0 leaves
Alternaria mali
  Average Infestation Rate (%) (Based on infested area): 0%
[6]
  Average Infestation Rate (%) (Based on infested area): 0%
Phytophthora infestans
  Infested Leaves (%): 0%
  Infestation Rate: 0
  Number of Leaves Showing Each Infestation Index: 0: 20 leaves
  Number of Leaves Showing Each Infestation Index: 1: 0 leaves
  Number of Leaves Showing Each Infestation Index: 2: 0 leaves
  Number of Leaves Showing Each Infestation Index: 3: 0 leaves
Venturia inaequalis
  Infested Leaves (%): 0%
  Infestation Rate: 0
  Number of Leaves Showing Each Infestation Index: 0: 25 leaves
  Number of Leaves Showing Each Infestation Index: 1: 0 leaves
  Number of Leaves Showing Each Infestation Index: 2: 0 leaves
  Number of Leaves Showing Each Infestation Index: 3: 0 leaves
[7]; dilution × 500, 600 l/10 a
  Phytotoxicity of Treating Compound: - (0%)
[7]; dilution × 750, 600 l/10 a
  Phytotoxicity of Treating Compound: - (0%)
Peroral acute toxicity
  LD50: > 300 mg/kg
ichthyotoxicity
  LC50 at 48 h: > 10 µg/mL
TA-100
  Ames test TA-100: negative
TA-98
  Ames test TA-98: negative
[8]
  Phytotoxicity of Treating Compound: - (0%)
Elsinoe fawcetti
  Infested Leaves (%): 0.6%
  Infestation Rate: 0.2
  Number of Leaves Showing Each Infestation Index: 0: 311 leaves
  Number of Leaves Showing Each Infestation Index: 1: 2 leaves
  Number of Leaves Showing Each Infestation Index: 2: 0 leaves
  Number of Leaves Showing Each Infestation Index: 3: 0 leaves
[9]
  Phytotoxicity of Treating Compound: - (0%)
Alternaria kikuchiana [10]
  Average Infestation Rate (%) (Based on infested area): 2%
[1]
  Phytotoxicity of Treating Compound: - (0%)
[2]
  Phytotoxicity of Treating Compound: - (0%)
[11]
  Phytotoxicity of Treating Compound: - (0%)
[12]
  Phytotoxicity of Treating Compound: - (0%)
[13]
  Phytotoxicity of Treating Compound: - (0%)

## O=C1C(Cl)=C(Cl)C(=O)N1c1ccc(F)cc1 [fluoroimide, N(p-Fluorophenyl)-2,3-dichloromaleimide]
[7]; dilution × 500, 600 l/10 a
  Phytotoxicity of Treating Compound: ++ (26-50%)
[7]; dilution × 750, 600 l/10 a
  Phytotoxicity of Treating Compound: + (6-25%)
Crops and trees; pear trees, strawberries, beans, and very many other crops
  phytotoxicity: severe phytotoxicity
Crops and trees; wide variety of crops and trees
  leaf-burn: liable to cause leaf-burn
[9]
  Phytotoxicity of Treating Compound: + (6-25%)

## ZnMnEthylenebisdithiocarbamate [mancozeb]
Diaporthe citri [4]
  Infested Leaves (%): 0%
  Infestation Rate: 0
  Number of Leaves Showing Infestation Index 0: 204 leaves
  Number of Leaves Showing Infestation Index 1: 0 leaves
  Number of Leaves Showing Infestation Index 2: 0 leaves
  Number of Leaves Showing Infestation Index 3: 0 leaves
  Number of Leaves Showing Infestation Index 4: 0 leaves
Diaporthe citri [5]
  Infested Leaves (%): 0%
  Infestation Rate: 0
  Number of Leaves Showing Each Infestation Index: 0: 159 leaves
  Number of Leaves Showing Each Infestation Index: 1: 0 leaves
  Number of Leaves Showing Each Infestation Index: 2: 0 leaves
  Number of Leaves Showing Each Infestation Index: 3: 0 leaves
  Number of Leaves Showing Each Infestation Index: 4: 0 leaves
Phytophthora infestans
  Infested Leaves (%): 0%
  Infestation Rate: 0
  Number of Leaves Showing Each Infestation Index: 0: 20 leaves
  Number of Leaves Showing Each Infestation Index: 1: 0 leaves
  Number of Leaves Showing Each Infestation Index: 2: 0 leaves
  Number of Leaves Showing Each Infestation Index: 3: 0 leaves
[8]
  Phytotoxicity of Treating Compound: - (0%)
[12]
  Phytotoxicity of Treating Compound: - (0%)
[13]
  Phytotoxicity of Treating Compound: - (0%)

## O=C1C=CC(=O)N1c1ccccc1 [N-phenylmaleimide]
Plant pathogens
  fungicidal effect: has a fungicidal effect
